According to patent US7410975B2, “Small molecule toll-like receptor (TLR) antagonists” (Coley Pharmaceutical Group, Inc., priority 2003, dated 2008):
Counter-ions that a name gives are not always drawn.

Target: T1, human TLR7 (hTLR7) (Homo sapiens, UniProt Q9NYK1)
T1 construct: expressed in transfected cells
T1 sequence (Q9NYK1 27-1049): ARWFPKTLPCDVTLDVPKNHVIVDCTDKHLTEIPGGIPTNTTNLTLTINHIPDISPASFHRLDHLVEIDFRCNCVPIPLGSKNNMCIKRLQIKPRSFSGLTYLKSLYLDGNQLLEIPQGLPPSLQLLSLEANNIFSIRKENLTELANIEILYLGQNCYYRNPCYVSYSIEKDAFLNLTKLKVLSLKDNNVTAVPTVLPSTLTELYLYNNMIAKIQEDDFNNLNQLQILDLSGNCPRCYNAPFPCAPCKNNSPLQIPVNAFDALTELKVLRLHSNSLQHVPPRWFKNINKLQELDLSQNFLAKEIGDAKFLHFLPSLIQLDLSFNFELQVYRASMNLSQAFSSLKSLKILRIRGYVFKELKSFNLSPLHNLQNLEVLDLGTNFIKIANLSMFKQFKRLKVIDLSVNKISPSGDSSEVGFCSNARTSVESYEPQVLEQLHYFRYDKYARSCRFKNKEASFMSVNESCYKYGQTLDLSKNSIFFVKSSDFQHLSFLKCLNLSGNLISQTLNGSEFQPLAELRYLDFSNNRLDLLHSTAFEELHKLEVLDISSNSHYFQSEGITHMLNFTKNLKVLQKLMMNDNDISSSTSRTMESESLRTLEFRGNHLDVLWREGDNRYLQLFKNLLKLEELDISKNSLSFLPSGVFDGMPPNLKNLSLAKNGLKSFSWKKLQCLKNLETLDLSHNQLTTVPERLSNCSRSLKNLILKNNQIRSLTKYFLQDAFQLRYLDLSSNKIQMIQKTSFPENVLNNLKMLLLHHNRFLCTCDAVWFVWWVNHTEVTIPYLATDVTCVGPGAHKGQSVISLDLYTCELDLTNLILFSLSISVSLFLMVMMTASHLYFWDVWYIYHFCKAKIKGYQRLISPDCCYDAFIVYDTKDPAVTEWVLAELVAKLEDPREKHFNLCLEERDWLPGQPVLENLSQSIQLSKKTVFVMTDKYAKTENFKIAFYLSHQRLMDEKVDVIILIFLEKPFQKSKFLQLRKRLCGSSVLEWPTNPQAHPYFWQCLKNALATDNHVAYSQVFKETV
Assay: Antagonist screen, hTLR7-NFκB-293 cells, NF-κB-luciferase reporter, with EC50 of R848
Assay type: cell-based
Conditions: compound at 0.5, 5, 50 μg/ml; EC50 concentration of R848; 16 h; NF-κB-luciferase
Procedure: The method is described in greater detail as follows. The cells for each individual cell clone (hTLR3-NFκB-293, hTLR7-NFκB-293, hTLR8-NFκB-293 and hTLR9-NFκB-293) were counted and seeded one day before the stimulation at 1.5×10^4 cells per well in 96-well cell culture plates. To become adherent the cells were incubated after seeding overnight at 37° C. in 5% CO2 humidified air.
The screen for each compound was performed at the same time for all of the receptors TLR3, TLR7, TLR8 and TLR9. Up to fifteen test compounds, each assayed in duplicate at each of three different final concentrations (0.5 μg/ml, 5 μg/ml, and 50 μg/ml), were used for 16 h cell stimulation on a single multiwell culture plate. A 4× final concentration master plate was created to prepare the different test compounds before they were added to the cells.
Controls were added as duplicates individually for each cell clone on the cell culture plate. Positive controls were used as follows (final concentrations): 50 μg/ml poly(I:C) for hTLR3-NFκB-293; 8 μM resiquimod (R848) for hTLR7-NFκB-293; 30 μM R848 for hTLR8-NFκB-293; and 2.5 μM CpG-ODN 2006 for hTLR9-NFκB-293. Media alone was used as negative control. After addition of controls and small molecules, the cell clones were additionally stimulated with the EC50 concentration of the appropriate receptor-specific ligand.
The mean value of wells H2 and H5 (each with cells and EC50 concentration of the appropriate receptor-specific ligand) divided by the mean of wells H3 and H6 (each with cells alone) yielded the baseline response (i.e., fold induction of luciferase activity) to EC50 concentration of the appropriate receptor-specific ligand.
After 16 h stimulation the supernatant was removed and the cells treated with lysis buffer and stored at −80° C. before measuring.
For each screen result a graphical documentation was performed.
The baseline result (measured with addition of the EC50 concentration of the receptor-specific ligand) for each cell culture plate was measured as described above. Antagonistic effects were measured by down regulation compared to the baseline. Antagonists were scored as follows: • 13: compounds for which there was clear down regulation at 0.5 μg/ml, 5 μg/ml, and 50 μg/ml; • 12: compounds for which there was clear down regulation at 5 μg/ml and 50 μg/ml; • 11: compounds for which there was clear down regulation only at 50 μg/ml; • —: compounds for which there was no clear down regulation even at 50 μg/ml. Agonists
Results were expressed as fold induction over baseline luciferase activity measured in the absence of R848. […] Additional screening was performed in like manner using additional small molecules selected from another library or specifically prepared for this purpose. Scoring is reported as above but as applied to TLR7.

Row | SMILES | hTLR7 (inhibitory effect, antagonist score)
1 | COC(=O)C1=CO[C@@H](C)[C@@H]2CN3CCc4c([nH]c5ccccc45)[C@@H]3C[C@H]12 [compound 593, Tetrahydroalstonine] | 11 (compounds for which there was clear down regulation only at 50 μg/ml)
2 | CC[C@]12CCCN3CCc4c(n(c5ccccc45)C(=O)C1)[C@@H]32 [compound 607, Eburnamonine] | 11 (compounds for which there was clear down regulation only at 50 μg/ml)
3 | Cc1nccc2c1[nH]c1cc(O)ccc12.Cl [compound 612, Harmol hydrochloride monohydrate] | 11 (compounds for which there was clear down regulation only at 50 μg/ml)
4 | COc1ccc2c(c1)[nH]c1c(C)nccc12.Cl [compound 613, harmine hydrochloride] | 13 (compounds for which there was clear down regulation at 0.5 μg/ml, 5 μg/ml, and 50 μg/ml)
5 | Cc1c2ccncc2c(C)c2c1[nH]c1ccccc12 [compound 614, Ellipticine] | 13 (compounds for which there was clear down regulation at 0.5 μg/ml, 5 μg/ml, and 50 μg/ml)
6 | Cc1nccc2c1[nH]c1ccccc12 [compound 620, Harmane hydrochloride] | — (compounds for which there was no clear down regulation even at 50 μg/ml)
7 | COc1ccc2[nH]c3c(c2c1)CCN=C3C [compound 621, Methoxy-6-harmalan] | — (compounds for which there was no clear down regulation even at 50 μg/ml)
8 | CC[C@]12CCCN3CCc4c(n(c5ccccc45)[C@](O)(C(=O)OC)C1)[C@@H]32 [compound 636, Epivincamine] | — (compounds for which there was no clear down regulation even at 50 μg/ml)
9 | Cl.Cl.c1ccc2c3c([nH]c2c1)C1C2CCC(C4CCCNC42)N1CC3 (stereo not shown) [compound 685, Nitrarine dihydorchloride] | — (compounds for which there was no clear down regulation even at 50 μg/ml)
10 | CN(C)CCCN1c2ccccc2Sc2ccccc21.Cl [compound 693, Promazinehydrochloride] | 12 (compounds for which there was clear down regulation at 5 μg/ml and 50 μg/ml)
11 | CN1CCC(OC(c2ccccc2)c2ccccc2)CC1.Cl [compound 707, Diphenylpyralinehydrochloride] | 11 (compounds for which there was clear down regulation only at 50 μg/ml)
12 | CCCC(C(=O)OCCN(CC)CC)(c1ccccc1)c1ccccc1.Cl [compound 778, Proadifen hydrochloride] | 11 (compounds for which there was clear down regulation only at 50 μg/ml)
13 | Cl.Clc1ccc(C(OCCN2CCCCC2)c2ccccc2)cc1 (stereo not shown) [compound 793, Cloperastinehydrochloride] | 11 (compounds for which there was clear down regulation only at 50 μg/ml)
14 | COc1ccc2c(c1)N(CC(C)CN(C)C)c1ccccc1S2.O=C(O)/C=C\C(=O)O (stereo not shown) [compound 797, Methotrimeprazinemaleat salt] | — (compounds for which there was no clear down regulation even at 50 μg/ml)
15 | CS(=O)(=O)O.OC(CCN1CCCCC1)(c1ccccc1)c1ccccc1 [compound 799, Pridinolmethanesulfonate salt] | — (compounds for which there was no clear down regulation even at 50 μg/ml)
16 | C[N+]12CCC(CC1)C(OC(=O)C(O)(c1ccccc1)c1ccccc1)C2.[Br-] (stereo not shown) [compound 822, Clidinium bromide] | — (compounds for which there was no clear down regulation even at 50 μg/ml)

Row | SMILES | hTLR7 (inhibitory effect, antagonist score)
17 | Clc1ccc(C(c2ccccc2Cl)C(Cl)Cl)cc1 (stereo not shown) [compound 833, Mitotane] | 11 (compounds for which there was clear down regulation only at 50 μg/ml)
18 | CCN(CC)C(C)CN1c2ccccc2Sc2ccccc21.Cl (stereo not shown) [compound 840, Ethopropazinehydrochloride] | — (compounds for which there was no clear down regulation even at 50 μg/ml)
19 | CC(CN(C)C)CN1c2ccccc2Sc2ccccc21.CC(CN(C)C)CN1c2ccccc2Sc2ccccc21.O=C(O)C(O)C(O)C(=O)O (stereo not shown) [compound 842, Trimeprazine tartrate] | — (compounds for which there was no clear down regulation even at 50 μg/ml)
20 | COC(=O)[C@H]1[C@H]2C[C@@H]3c4[nH]c5cc(OC)ccc5c4CCN3C[C@H]2C[C@@H](OC(=O)c2cc(OC)c(OC)c(OC)c2)[C@@H]1OC [compound 875, Reserpine] | — (compounds for which there was no clear down regulation even at 50 μg/ml)
21 | OCc1cc2c(cn1)[nH]c1ccccc12 [compound 878, 3-hydroxymethyl-beta-carboline] | — (compounds for which there was no clear down regulation even at 50 μg/ml)
22 | O=C(O)c1cc(C(c2ccc(O)c(C(=O)O)c2)C(Cl)(Cl)Cl)ccc1O [compound 884] | 11 (compounds for which there was clear down regulation only at 50 μg/ml)
23 | CN(CCO)C(=O)c1cccc2c1-c1ccccc1C2=O [compound 890] | 11 (compounds for which there was clear down regulation only at 50 μg/ml)
24 | COC(=O)c1cccc2c1-c1ccccc1/C2=N/O [compound 904] | 12 (compounds for which there was clear down regulation at 5 μg/ml and 50 μg/ml)
25 | O=C(O)c1ccccc1NC1CC=CC2=C1C(=O)c1ccccc1C2=O (stereo not shown) [compound 917] | 11 (compounds for which there was clear down regulation only at 50 μg/ml)
26 | O=C(O)c1cccc2c1/C(=N/O)c1ccccc1-2 [compound 918] | 11 (compounds for which there was clear down regulation only at 50 μg/ml)
27 | CCCCOC(=O)c1cc([N+](=O)[O-])cc2c1-c1cc(CO)c([NH+]([O-])O)cc1C2=C(C#N)C#N (stereo not shown) [compound 939] | 11 (compounds for which there was clear down regulation only at 50 μg/ml)
28 | O=C(O)c1cccc2c1-c1ccccc1/C2=N/Nc1ccc([N+](=O)[O-])cc1[N+](=O)[O-] [compound 944] | 11 (compounds for which there was clear down regulation only at 50 μg/ml)
29 | C=CCc1ccccc1OC1(c2ccccc2)OC(=O)c2ccccc21 (stereo not shown) [compound 957] | 11 (compounds for which there was clear down regulation only at 50 μg/ml)
30 | COC(=O)c1ccc(C2CC(=O)Nc3c2ccc2ccccc32)cc1 (stereo not shown) [compound 965] | 12 (compounds for which there was clear down regulation at 5 μg/ml and 50 μg/ml)
31 | O=C(O)c1ccc(C2(c3ccc(C(=O)O)cc3)OC(=O)c3ccccc32)cc1 [compound 970] | — (compounds for which there was no clear down regulation even at 50 μg/ml)
